Data on eight compounds can be found in US4304726A, “Process for the preparation of cholesterol derivatives” (The Green Cross Corporation, priority 1979, dated 1981).

The test system of one series is PHA reaction. As to the kind of experiment: PHA reaction, 50% inhibitory concentration (immunosuppressive action in vitro). The format is cell-based. Conditions: ester form as emulsion with polyoxyethylene-polyoxypropylene copolymer, salt form as aqueous solution; for IC50: read-out: Concentration for 50% inhibition. On the procedure:
In accordance with the PHA method by Cooparband et al. [The Journal of Immunology, 109, (1), 154 (1972)], the compounds of this invention were tested for the 50% inhibitory concentration in the PHA reaction. Also, the effect of IRA (Immunoregulatory α-globulin) obtained according to the method of Occhino et al. [The Journal of Immunology, 110, (3), 685 (1973)] was shown as comparative test data. Among these compounds, those of the ester form were used in emulsion employing a copolymer of polyoxyethylene-polyoxypropylene having molecular weight of 8350 as a surfactant, and those of the salt form were used as aqueous solutions.

Series [1] deals with carrageenin edema of hind footpad. As to the kind of experiment: Carrageenin hind footpad edema in rats (anti-inflammatory action). The format is in vivo. Conditions: 50 mg/kg intraperitoneally 1 h before carrageenin, 4 hours after inoculation. How it is done:
Using rats, each of derivatives of 7-hydroxycholesterol and of 7-ketocholesterol shown in Table 2 was administered intraperitoneally to 5 rats of each group in a dose of 50 mg/kg (physiologically isotonic aqueous solution with a concentration of 2.0% by weight), and one hour after the administration, each 0.05 ml of 1% aqueous carrageenin solution as an inflammation-causing substance was subcutaneously inoculated at the hind footpad.
After 4 hours from the inoculation of carrageenin, the size of edema caused on the footpad was measured by means of a volume differential meter to compare with that of the control group which was given to the physiological sodium chloride aqueous solution.
The ester samples administered were in the form of emulsion employing a phospholipid as a surfactant, and the salt samples were in the form of physiologically isotonic solution.
Background: In the carrageenan paw model, swelling and tenderness develop within hours.

In the next series the test system is rats. As to the kind of experiment: Acute toxicity test in rats. The format is in vivo. Conditions: intraperitoneal, 250, 500, 750 or 1000 mg/kg, 5-days' observation. On the procedure: Acute toxicity tests were performed using rats, each group consisting of 5 rats each weighing approximately 200 g, on 7-ketocholesteryl hydrogen succinate, 7-ketocholesteryl hydrogen phthalate, sodium 7-ketocholesteryl succinate, ammonium 7-ketocholesteryl succinate, 7-hydroxycholesteryl hydrogen succinate, 7β-hydroxycholesteryl hydrogen phthalate, sodium 7-hydroxycholesteryl succinate, and sodium 7β-hydroxycholesteryl phthalate. Each of the compounds of salt type was made into a physiologically isotonic aqueous solution, and each of the compounds of ester type was dispersed with a surfactant and by ultrasonic wave treatment to give a uniform dispersion. Thereafter, each of them was administered intraperitoneally in an amount of 250 mg/kg, 500 mg/kg, 750 mg/kg, or 1000 mg/kg. After 5-days' observation, no rat died.

For series [2] the following is noted: Japanese Kokai No. 104,735/1978, cited from earlier work; for immunosuppressive effect: particularly cell-mediated.

On to `CC(C)CCC[C@@H](C)[C@H]1CC[C@H]2[C@@H]3[C@@H](O)C=C4C[C@@H](OC(=O)c5ccccc5C(=O)O)CC[C@]4(C)[C@H]3CC[C@]12C` [Sodium 7β-hydroxycholesteryl phthalate], for which, in the series on PHA reaction, the “Concentration for 50% inhibition” value came out at 4 µg/mL. Moreover, in series [1] (control 82, 50 mg/kg), the “Swelling rate of edema” value was determined as 31%. The “death of rats (acute toxicity)” value in the series with rats was “no rat died”.

For `CC(C)CCC[C@@H](C)[C@H]1CC[C@H]2[C@@H]3C(=O)C=C4C[C@@H](O)CC[C@]4(C)[C@H]3CC[C@]12C` [7-ketocholesterol], in series [2], the anti-inflammatory effect result is given as “effective” and the immunosuppressive effect result is reported as “effective as immunosuppressive agent”.

Regarding `CC(C)CCC[C@@H](C)[C@H]1CC[C@H]2[C@@H]3C(O)C=C4C[C@@H](OC(=O)CCC(=O)O)CC[C@]4(C)[C@H]3CC[C@]12C` (stereo partly shown) [7-hydroxycholesteryl hydrogen succinate], in the series with PHA reaction, the IC50 was determined as 3 µg/mL. Further, the “Swelling rate of edema” value in series [1] (control 82, 50 mg/kg) was determined as 29%. The “death of rats (acute toxicity)” value with rats was “no rat died”.

Regarding `CC(C)CCC[C@@H](C)[C@H]1CC[C@H]2[C@@H]3C(=O)C=C4C[C@@H](OC(=O)CCC(=O)O)CC[C@]4(C)[C@H]3CC[C@]12C` [7-ketocholesteryl hydrogen succinate], the IC50 in the series with PHA reaction amounted to 4 µg/mL. The “Swelling rate of edema” value in series [1] (control 82) came to 30%. Also, the “death of rats (acute toxicity)” value in the series with rats is “no rat died”.

In the case of `CC(C)CCC[C@@H](C)[C@H]1CC[C@H]2[C@@H]3[C@@H](O)C=C4C[C@@H](OC(=O)c5ccccc5C(=O)O)CC[C@]4(C)[C@H]3CC[C@]12C` [7β-hydroxycholesteryl hydrogen phthalate], the IC50 in the series on PHA reaction turned out to be 3 µg/mL. In addition, the “Swelling rate of edema” value in series [1] (control 82, 50 mg/kg) is on record as 30%. Moreover, in the series with rats, the “death of rats (acute toxicity)” value is listed as “no rat died”.

For `CC(C)CCC[C@@H](C)[C@H]1CC[C@H]2[C@@H]3C(=O)C=C4C[C@@H](OC(=O)c5ccccc5C(=O)O)CC[C@]4(C)[C@H]3CC[C@]12C` [7-ketocholesteryl hydrogen phthalate], the IC50 in the series on PHA reaction came to 4 µg/mL. In addition, in series [1] (control 82), the “Swelling rate of edema” value was determined as 28%. For the same compound, the “death of rats (acute toxicity)” value in the series on rats is on record as “no rat died”.

Take `CC(C)CCC[C@@H](C)[C@H]1CC[C@H]2[C@@H]3C(O)C=C4C[C@@H](O)CC[C@]4(C)[C@H]3CC[C@]12C` (stereo partly shown) [7-hydroxycholesterol]: in series [2], the anti-inflammatory effect entry was “effective” and the immunosuppressive effect result is “effective as immunosuppressive agent”.

For `CC(C)CCC[C@@H](C)[C@H]1CC[C@H]2[C@@H]3C(O)C=C4C[C@@H](OC(=O)CCC(=O)O)CC[C@]4(C)[C@H]3CC[C@]12C` (stereo partly shown) [Sodium 7-hydroxycholesteryl succinate, sodium 7-hydroxycholesteryl succinate], the “Concentration for 50% inhibition” value in the series with PHA reaction is 3 µg/mL. Besides, in series [1] (control 82, 50 mg/kg), the “Swelling rate of edema” value amounted to 28%. In addition, in the series with rats, the “death of rats (acute toxicity)” value is on record as “no rat died”.
